target: T1, human Kv1.3 (Homo sapiens, UniProt P22001); test: Kv1.3 Autopatch electrophysiology (whole cell patch-clamp, inhibition of charge movement); type: cell-based; details: compound at 1 μM; cells stably transfected with human Kv1.3; room temperature; total charge during step to +30 mV relative to control; read-out: hKv1.3 % inh.
T1 construct: expressed in transfected cells; host or cells: stably transfected cells grown in medium for CHO cells
Method: Kv1.3 Autopatch Electrophysiology Method
Compounds were tested on these cells using the AutoPatch technology in whole cell mode.
The external bathing solution contained (in mM): 150 NaCl, 10 KCl, 1 MgCl2, 3 CaCl2, 10 HEPES, pH 7.4 with NaOH. Patch pipettes were filled with an electrode solution of composition (in mM): 100 K-Gluconate, 20 KCl, 1 MgCl2, 1 CaCl2, 10 HEPES, 11 EGTA, 5 ATP-Na2, 2 Glutathione pH 7.2 with KOH.
Compounds were dissolved in DMSO (100%) and made up in the external bather at a concentration of 1 μM immediately prior to use. All experiments were conducted at room temperature.
A cell suspension (10 ml), with a density of 6×10^6 cells, was aliquoted into a 15 ml centrifuge tube and stored at 4° C. before use. Prior to use a tube was taken and centrifuged at 1000 rpm for 4 mins at room temperature. The supernatant was then discarded, leaving a cell pellet at the bottom of the tube. The pellet was then resuspended using 1 ml of cold (4° C.), filtered (0.22 μm), 0.05% BSA/bather solution (0.05 g BSA/100 ml bather). The bottom of the tube was manually agitated followed by gentle tituration. The cell suspension was then placed in the AutoPatch™ temperature controlled cell-hotel at 14° C. and regularly titurated.
A length of Teflon capillary tubing was dipped into the cell suspension solution, and a column of fluid was taken up by negative pressure. The column of fluid was in electrically connectivity with a Ag/AgCl reference electrode. Borosilicate glass patch pipettes (from 1.5 mm OD, thin-walled filamented, GC150-TF capillary glass, Harvard) were pulled using a DMZ pipette puller (Zeitz Instruments), and were back-filled using the internal pipette solution, being careful that no bubbles remained at the tip or in the body of the pipette. Patch pipettes typically had resistances of 2.5-3.5 MΩ. Once filled, the pipette tip and a proportion of the shaft (˜15 mm) were dipped into Sigmacote (Sigma). The recording pipettes were placed in a multiwell array and mounted on the AutoPatch™ machine. Automated patch-clamping and drug-application was initiated by the operator, but thereafter AutoPatch.exe continued the experiment providing that pre-set conditions and criteria were satisfied.
Whole cell patch-clamp recordings were made using the AutoPatch™ rig, which incorporated an EPC9 or EPC10 amplifier (HEKA, Germany) under control of Pulse software (v8.54 or v8.76, HEKA, Germany), a cell applicator, automated drug application system (DAS), valve controller (VF1) and a suction device all at room temperature. This equipment was completely under the control of AutoPatch.exe and operator intervention was only made when there was a requirement to refill the bather reservoirs or to prevent the loss of a cell due to a technical error.
Cells were continuously perfused with external solution at a flow rate of ˜2 ml/minute.
Electrophysiology voltage-step protocols and analysis of data was performed as follows. Data were sampled at 5 kHz, and filtered with a −3 dB bandwidth of 2.5 kHz. Cells were held at a voltage of −80 mV. Currents were evoked by a voltage step to +30 mV for 500 ms in duration applied every 15 s. Online analysis of the hKv1.3 current during the application of compounds was performed by the Pulse (v8.54 or v8.76, HEKA, Germany), Excel (Microsoft, USA) and AutoPatch™ software, with the total charge measured during the whole of voltage step. Inhibition of charge movement in the presence of drug was calculated relative to control.

T1 sequence (P22001 whole entry): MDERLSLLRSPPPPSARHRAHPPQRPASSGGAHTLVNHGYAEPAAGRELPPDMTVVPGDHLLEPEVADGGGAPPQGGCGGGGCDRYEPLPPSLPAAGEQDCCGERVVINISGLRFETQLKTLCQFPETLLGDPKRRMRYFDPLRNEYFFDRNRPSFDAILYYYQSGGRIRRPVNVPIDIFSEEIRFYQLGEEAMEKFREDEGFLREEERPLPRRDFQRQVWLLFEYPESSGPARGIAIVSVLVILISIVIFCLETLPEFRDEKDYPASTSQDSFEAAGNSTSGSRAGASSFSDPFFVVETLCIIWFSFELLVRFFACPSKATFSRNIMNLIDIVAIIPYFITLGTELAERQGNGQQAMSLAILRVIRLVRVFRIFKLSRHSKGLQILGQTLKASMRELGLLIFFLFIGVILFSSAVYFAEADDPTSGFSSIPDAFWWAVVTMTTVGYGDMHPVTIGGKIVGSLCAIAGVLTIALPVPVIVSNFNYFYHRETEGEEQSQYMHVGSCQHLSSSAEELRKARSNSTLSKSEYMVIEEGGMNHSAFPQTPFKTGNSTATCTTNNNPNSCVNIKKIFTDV

| SMILES | inhibition at 1 µM [%] |
| --- | --- |
| CN(C)S(=O)(=O)N(Cc1ccccc1)c1ccc(C(=O)N2CCOC(c3ccccc3)C2)cc1F (stereo not drawn) [Example 73, N-Benzyl-N-[2-fluoro-4-(2-phenyl-morpholine-4-carbonyl)-phenyl]-N′,N′-dimethylsulfamide] | 67 |
| CC1CCCN(C(=O)c2ccc(N(Cc3ccccc3)S(=O)(=O)c3cn(C)cn3)cc2)C1 (stereo not drawn) [Example 74, 1-Methyl-1H-imidazole-4-sulfonic acid benzyl-[4-(3-methyl-piperidine-1-carbonyl)-phenyl]-amide] | 51 |
| Cn1cnc(S(=O)(=O)N(Cc2ccccc2)c2ccc(C(=O)N3CCN(c4ccccc4F)CC3)cc2)c1 [Example 75, 1-Methyl-1H-imidazole-4-sulfonic acid benzyl-{4-[4-(2-fluoro-phenyl)-piperazine-1-carbonyl]-phenyl}-amide] | 64 |
| Cn1cnc(S(=O)(=O)N(Cc2ccccc2)c2ccc(C(=O)N3CCN(CC4CCCCC4)CC3)cc2)c1 [Example 76, 1-Methyl-1H-imidazole-4-sulfonic acid benzyl-[4-(4-cyclohexylmethyl-piperazine-1-carbonyl)-phenyl]-amide] | 45 |
| Cn1cnc(S(=O)(=O)N(Cc2ccccc2)c2ccc(C(=O)N3CCN(c4nccs4)CC3)cc2)c1 [Example 77, 1-Methyl-1H-imidazole-4-sulfonic acid benzyl-[4-(4-thiazol-2-yl-piperazine-1-carbonyl)-phenyl]-amide] | 42 |
| Cn1cnc(S(=O)(=O)N(Cc2ccccc2)c2ccc(C(=O)N3CCCC(C(F)(F)F)C3)cc2)c1 (stereo not drawn) [Example 78, 1-Methyl-1H-imidazole-4-sulfonic acid benzyl-[4-(3-trifluoromethyl-piperidine-1-carbonyl)-phenyl]-amide] | 74 |
| Cn1cnc(S(=O)(=O)N(Cc2ccccc2)c2ccc(C(=O)N3CCC(F)(F)CC3)cc2)c1 [Example 79, 1-Methyl-1H-imidazole-4-sulfonic acid benzyl-[4-(4,4-difluoro-piperidine-1-carbonyl)-phenyl]-amide] | 60 |
| Cn1cnc(S(=O)(=O)N(Cc2ccccc2)c2ccc(C(=O)N3CCCC(F)C3)cc2)c1 (stereo not drawn) [Example 80, 1-Methyl-1H-imidazole-4-sulfonic acid benzyl-[4-(3-fluoro-piperidine-1-carbonyl)-phenyl]-amide] | 30 |
| Cn1cnc(S(=O)(=O)N(Cc2ccccc2)c2ccc(C(=O)N3CCN(C(=O)OC(C)(C)C)C(c4ccccc4)C3)cc2)c1 (stereo not drawn) [Example 81, 4-{4-[Benzyl-(1-methyl-1H-imidazole-4-sulfonyl)-amino]-benzoyl}-2-phenyl-piperazine-1-carboxylic acid tert-butyl ester] | 57 |
| Cn1cnc(S(=O)(=O)N(Cc2ccccc2)c2ccc(C(=O)N3CCC(c4ccc(F)cc4)C3)cc2)c1 (stereo not drawn) [Example 82, 1-Methyl-1H-imidazole-4-sulfonic acid benzyl-{4-[3-(4-fluoro-phenyl)-pyrrolidine-1-carbonyl]-phenyl}-amide] | 78 |
| CN1CCN(C(=O)c2ccc(N(Cc3ccccc3)S(=O)(=O)c3cn(C)cn3)cc2)CC1c1ccccc1 (stereo not drawn) [Example 83, 1-Methyl-1H-imidazole-4-sulfonic acid benzyl-[4-(4-methyl-3-phenyl-piperazine-1-carbonyl)-phenyl]-amide] | 64 |
| Cn1ccc(S(=O)(=O)N(Cc2ccccc2)c2ccc(C(=O)N3CCOC(c4ccccc4)C3)cc2)n1 (stereo not drawn) [Example 84, 1-Methyl-1H-pyrazole-3-sulfonic acid benzyl-[4-(2-phenyl-morpholine-4-carbonyl)-phenyl]-amide] | 89 |
| Cn1ccc(S(=O)(=O)N(Cc2ccc(Cl)cc2)c2ccc(C(=O)N3CCCCC3)cc2)n1 [Example 86, 1-Methyl-1H-pyrazole-3-sulfonic acid (4-chloro-benzyl)-[4-(piperidine-1-carbonyl)-phenyl]-amide] | 88 |
| Cn1ccc(S(=O)(=O)N(Cc2ccccc2)c2ccc(C(=O)N3CCNC(c4ccccc4)C3)cc2)n1 (stereo not drawn) [Example 88, 1-Methyl-1H-pyrazole-3-sulfonic acid benzyl-[4-(3-phenyl-piperazine-1-carbonyl)-phenyl]-amide] | 46 |
| Cn1nccc1S(=O)(=O)N(Cc1ccccc1)c1ccc(C(=O)N2CCNC(c3ccccc3)C2)cc1 (stereo not drawn) [Example 89, 2-Methyl-2H-pyrazole-3-sulfonic acid benzyl-[4-(3-phenyl-piperazine-1-carbonyl)-phenyl]-amide] | 61 |
| CN1CCN(C(=O)c2ccc(N(Cc3ccccc3)S(=O)(=O)c3ccnn3C)cc2)CC1c1ccccc1 (stereo not drawn) [Example 91, 2-Methyl-2H-pyrazole-3-sulfonic acid benzyl-[4-(4-methyl-3-phenyl-piperazine-1-carbonyl)-phenyl]-amide] | 81 |
| CC1CCCN(C(=O)c2ccc(N(Cc3ccc(Cl)cc3)S(=O)(=O)c3cn(C)cn3)cc2)C1 (stereo not drawn) [Example 92, 1-Methyl-1H-imidazole-4-sulfonic acid (4-chloro-benzyl)-[4-(3-methyl-piperidine-1-carbonyl)-phenyl]-amide] | 61 |
| CC1CCCN(C(=O)c2ccc(N(Cc3ccc(F)cc3)S(=O)(=O)c3cn(C)cn3)cc2)C1 (stereo not drawn) [Example 94, 1-Methyl-1H-imidazole-4-sulfonic acid (4-fluoro-benzyl)-[4-(3-methyl-piperidine-1-carbonyl)-phenyl]-amide] | 52 |
| Cc1ccc(CN(c2ccc(C(=O)N3CCCC(C)C3)cc2)S(=O)(=O)c2cn(C)cn2)cc1 (stereo not drawn) [Example 95, 1-Methyl-1H-imidazole-4-sulfonic acid (4-methyl-benzyl)-[4-(3-methyl-piperidine-1-carbonyl)-phenyl]-amide] | 51 |
| Cn1cnc(S(=O)(=O)N(Cc2ccc(Cl)c(Cl)c2)c2ccc(C(=O)N3CCCCC3)cc2)c1 [Example 96, 1-Methyl-1H-imidazole-4-sulfonic acid (3,4-dichloro-benzyl)-[4-(piperidine-1-carbonyl)-phenyl]-amide] | 48 |
| Cn1cnc(S(=O)(=O)N(Cc2ccc(F)c(Cl)c2)c2ccc(C(=O)N3CCCCC3)cc2)c1 [Example 97, 1-Methyl-1H-imidazole-4-sulfonic acid (3-chloro-4-fluoro-benzyl)-[4-(piperidine-1-carbonyl)-phenyl]-amide] | 61 |
| CC1CCCN1C(=O)c1ccc(N(Cc2ccc(Cl)cc2)S(=O)(=O)c2cn(C)cn2)cc1 (stereo not drawn) [Example 98, 1-Methyl-1H-imidazole-4-sulfonic acid (4-chloro-benzyl)-[4-(2-methyl-pyrrolidine-1-carbonyl)-phenyl]-amide] | 51 |
| CC1CCN(C(=O)c2ccc(N(Cc3ccc(Cl)cc3)S(=O)(=O)c3cn(C)cn3)cc2)C1 (stereo not drawn) [Example 99, 1-Methyl-1H-imidazole-4-sulfonic acid (4-chloro-benzyl)-[4-(3-methyl-pyrrolidine-1-carbonyl)-phenyl]-amide] | 52 |
| Cn1cnc(S(=O)(=O)N(Cc2ccc(Cl)cc2)c2ccc(C(=O)N3CCC(F)(F)C3)cc2)c1 [Example 100, 1-Methyl-1H-imidazole-4-sulfonic acid (4-chloro-benzyl)-[4-(3,3-difluoro-pyrrolidine-1-carbonyl)-phenyl]-amide] | 52 |

— patent US8258138B2, “Potassium channel blockers” (Xention Limited, priority 2008, dated 2012)
